# Experimental data from PubChem BioAssay AID1333 (NMMLSC, 2008).
# Molecular target: Cell division control protein 42 homolog (Homo sapiens) (UniProt P60953)
# Assay: activated mutant Cdc42 GTP-binding inhibitors, dose response, biochemical, multiplex bead flow cytometry, Bodipy-FL-GTP (AID 1333);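 also: potency of compounds that compete with and reduce fluorescent GTP binding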
# Settings: bead-based flow cytometry
row,Structure (SMILES),EC50 [µM]
1,Cc1ccc(SC(CC(=O)c2ccc(C(C)(C)C)cc2)C(=O)O)cc1 (configuration not stated),5.11
2,Cc1cc(C(=O)Cn2nc(C(=O)O)c3ccccc3c2=O)c(C)n1-c1ccc(OC(F)F)cc1,4.89
3,CCc1ccc(NS(=O)(=O)c2ccc3[nH]cc(C(=O)N4CCc5ccccc54)c(=O)c3c2)cc1,50.1
4,COc1ccc(C2CC(c3ccccc3)=NN2c2ccc(S(N)(=O)=O)cc2)cc1 (configuration not stated),8.04
5,O=C(NCc1ccc2c(c1)OCO2)c1ccc(CSCc2cccc(Cl)c2)o1,20.6
6,Cc1ccc(-n2c(-c3cnccn3)n[nH]c2=S)c(Br)c1,53.8
7,COC(=O)c1cccnc1SCCc1ccccc1,24.2
8,CCOC(=O)c1cc([N+](=O)[O-])c([N+](=O)[O-])cc1NC(C)=O,7.18
9,CCn1nc(/C=C/c2ccccc2)nc2c(=O)n(C)c(=O)nc1-2,1.44
10,O=C(C#CC1CCCCC1)c1ccc([N+](=O)[O-])cc1,45.9
11,CCOc1ccc(/C=C2\SC(N3CCc4ccccc4C3)=NC2=O)cc1,16.5
12,OC(CNCCc1ccc(Cl)cc1)COc1ccc2ccccc2c1 (configuration not stated),11.3
13,O=C(NCc1cccs1)c1cccnc1C(=O)O,4.31
14,COc1cccc(-n2nnnc2S(C)(=O)=O)c1,15.4
15,O=C(Nc1nnc(-c2ccc3c(c2)OCCO3)o1)c1ccc(Cc2ccccc2)cc1,2.79
16,COc1ccc(-c2cc(C#N)nc(N3CCNCC3)n2)cc1,27.1
17,Cc1cccc2cc(CN(Cc3cccs3)C(c3nnnn3C3CCCC3)C(C)C)c(=O)[nH]c12 (configuration not stated),1.63
18,CC(C)C(NCc1c(Cl)cccc1Cl)C(=O)O (configuration not stated),5.85
19,CCCN1C(=O)/C(=C/C=C2\N(CC)c3ccccc3C2(C)C)SC1=S,5.59

row,Structure (SMILES),EC50 [µM]
1,N#Cc1c(-c2ccccc2)nc(SCC(=O)Nc2ccccc2)[nH]c1=O,1.66
2,CCCc1nc2c(=O)n(C)c(=O)nc-2n(C)n1,1.77
3,CC(=O)c1ccc(C#CC(=O)c2ccc([N+](=O)[O-])cc2)cc1,0.989
4,O=C(O)c1ccccc1NCCc1ccc(Cl)cc1,0.885
5,NS(=O)(=O)c1ccc(N2N=C(c3ccccc3)CC2c2cccc(F)c2)cc1 (configuration not stated),9.59
6,CS(=O)(=O)c1ccc(C(=O)OCC(=O)NC(=O)C2CCCCC2)cc1[N+](=O)[O-],12.9
7,O=C(O)/C=C/c1cn(Cc2ccccc2)nc1-c1cccs1,2.18
8,Cc1cc(C)c(C)c(C(=O)c2ccccc2C(=O)O)c1C,4.95
9,O=C(C#Cc1ccccc1)c1cccc([N+](=O)[O-])c1,13.5
10,COc1cccc(NC(=O)COC(=O)/C=C/c2ccc(Cl)cc2Cl)c1,3.53
11,O=C(Nc1ccccc1)C1=C(c2ccccc2)S(=O)(=O)CCS1(=O)=O,43.9
12,O=C(C#Cc1ccc(F)cc1)c1ccc([N+](=O)[O-])cc1,3.55
13,Cc1nn(Cc2ccccc2)c(Cl)c1C(=O)O,13.9
14,Cc1nc2c(=O)n(C)c(=O)nc-2n(C)n1,1.61
15,Cc1ccc(NC(=O)C2=C(c3ccccc3)S(=O)(=O)CCS2(=O)=O)cc1,58.7
16,Cc1ccc(C)c(OCCn2cc(C(=O)O)c3ccccc32)c1,0.358
17,O=C(O)c1ccccc1Sc1ncnc2sc3c(c12)CCC3,1.84
18,O=C(O)c1cc(Sc2ccc(Cl)cc2)nc2ccccc12,18.7
